According to patent US6767718B2, “Lipodepsipeptide antibiotics and methods of preparation” (BioSource Pharm, Inc., priority 2002, dated 2004):
Numbered stars: 1 amine (or outer) side, 2 acyl side, 3 side chain; on linkers, the order of the positions; unused ones are H or OH. Bridge positions count the residues as written; N and C are the ends. Square brackets hold non-standard residues; d marks the D form. Peptide text beside a SMILES is read from it. * marks the point of attachment. X1 = CC(CC(=O)O)C(N[*:1])C(=O)[*:2]; Kyn = Nc1ccccc1C(=O)C[CH](N)C(=O)O; NH(CH2)11CH3 = CCCCCCCCCCCCN*; Orn = NCCC[CH](N)C(=O)O; CO = O=C([*:1])[*:2]

How the values were obtained:
[1] = test system: Staphlococcus aureus strain Smith; experiment: MIC by serial twofold broth dilution in Mueller Hinton broth without and with 4 mmolar CaCl2; format: cell-based, Staphylococcus aureus; conditions: for MIC vs. S. aureus w Ca++ / MIC vs. S. aureus wo Ca++: S. aureus strain Smith; for MIC vs. S. aureus w Ca++: Mueller Hinton broth with 4 mmolar CaCl2; for MIC vs. S. aureus wo Ca++: Mueller Hinton broth without CaCl2
[2] = test system: gram positive bacteria including methicillin-resistant Staphylococcus aureus (MRSA) and vancomycin-resistant enterococci (VRE); conditions: including MRSA and VRE strains; cited from earlier work

## CH3(CH2)8CO-L-Harm-Asn-Asp-cdpeptide [Compound 13]
[1]
  MIC vs. S. aureus w Ca++: 5.0
  MIC vs. S. aureus wo Ca++: >10

## CH3(CH2)11NHCO-Asn-Asp-FMOC-cdpeptide [Compound 2]
[1]
  MIC vs. S. aureus w Ca++: 5.0
  MIC vs. S. aureus wo Ca++: >20

## CH3(CH2)9SO2-L-Phe-Asn-Asp-FMOC-cdpeptide [Compound 8]
[1]
  MIC vs. S. aureus w Ca++: 5.0
  MIC vs. S. aureus wo Ca++: >20

## CH3(CH2)8CO-Trp-Asn-Asp-tBOC-cdpeptide [tBOC daptomycin, reference compound]
[1]
  MIC vs. S. aureus w Ca++: 0.6
  MIC vs. S. aureus wo Ca++: >2.5

## CCCCCCCCCC(=O)NC(Cc1cccc2ccccc12)C(=O)NC(CC(N)=O)C(=O)NC(CC(=O)O)C(=O)NC1C(=O)NCC(=O)NC(CCCN)C(=O)NC(CC(=O)O)C(=O)NC(C)C(=O)NC(CC(=O)O)C(=O)NCC(=O)NC(CO)C(=O)NC(C(C)CC(=O)O)C(=O)NC(CC(=O)c2ccccc2N)C(=O)OC1C [Compound 11, N-Decanoyl-L-β-(1-naphthyl)alanyl-cyclodepsipeptide-2]
[1]
  MIC vs. S. aureus w Ca++: 0.16
  MIC vs. S. aureus wo Ca++: 2.5

## CH3(CH2)8CO-D-Harm-Asn-Asp-cdpeptide [Compound 14]
[1]
  MIC vs. S. aureus w Ca++: >10
  MIC vs. S. aureus wo Ca++: >10

## CH3(CH2)8CO-Asn-Asp-cdpeptide [Compound 4]
[1]
  MIC vs. S. aureus w Ca++: >10
  MIC vs. S. aureus wo Ca++: >20

## CH3(CH2)8CO-Trp-Asn-Asp-cdpeptide [daptomycin, reference compound]
[1]
  MIC vs. S. aureus w Ca++: 0.16
  MIC vs. S. aureus wo Ca++: 2.5
[2]
  Activity against gram positive bacteria (in words): excellent activity

## CCCCCCCCCCCCNC(=O)NC(CC(=O)O)C(=O)NC1C(=O)NCC(=O)NC(CCCN)C(=O)NC(CC(=O)O)C(=O)NC(C)C(=O)NC(CC(=O)O)C(=O)NCC(=O)NC(CO)C(=O)NC(C(C)CC(=O)O)C(=O)NC(CC(=O)c2ccccc2N)C(=O)OC1C (centres unmarked) [Compound 1, N-Dodecylcarbamoyl-cyclodepsipeptide-1] ({NH(CH2)11CH3-CO}-DTG[Orn]DADGS[X1][Kyn]; ester 2-C; configuration not given here)
[1]
  MIC vs. S. aureus w Ca++: 10.0
  MIC vs. S. aureus wo Ca++: >20
[1]; carbamoyl-linked compounds, Table 2
  Antibacterial activity (in words): good antibacterial activity
